The test concerns the target T1, Exodeoxyribonuclease V (Escherichia coli (strain K12), UniProt P04993+P07648+P08394).
T1 sequence (P04993 whole entry): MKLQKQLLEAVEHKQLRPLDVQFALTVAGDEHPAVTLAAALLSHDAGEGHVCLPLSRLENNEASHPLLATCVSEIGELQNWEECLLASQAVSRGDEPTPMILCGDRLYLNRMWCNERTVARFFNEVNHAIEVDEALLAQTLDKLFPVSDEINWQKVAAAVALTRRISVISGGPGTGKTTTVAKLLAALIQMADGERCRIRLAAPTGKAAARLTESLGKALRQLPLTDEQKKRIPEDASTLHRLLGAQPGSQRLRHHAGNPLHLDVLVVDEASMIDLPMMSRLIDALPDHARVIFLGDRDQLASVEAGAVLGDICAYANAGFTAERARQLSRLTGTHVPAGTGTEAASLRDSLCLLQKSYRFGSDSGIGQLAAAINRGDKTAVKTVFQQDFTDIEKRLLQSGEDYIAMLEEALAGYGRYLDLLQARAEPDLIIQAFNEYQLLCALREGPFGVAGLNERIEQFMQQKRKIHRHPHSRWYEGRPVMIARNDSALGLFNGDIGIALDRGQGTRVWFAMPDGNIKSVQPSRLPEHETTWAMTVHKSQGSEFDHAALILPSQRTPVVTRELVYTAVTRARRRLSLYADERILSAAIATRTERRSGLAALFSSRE
T1 sequence (P07648 whole entry): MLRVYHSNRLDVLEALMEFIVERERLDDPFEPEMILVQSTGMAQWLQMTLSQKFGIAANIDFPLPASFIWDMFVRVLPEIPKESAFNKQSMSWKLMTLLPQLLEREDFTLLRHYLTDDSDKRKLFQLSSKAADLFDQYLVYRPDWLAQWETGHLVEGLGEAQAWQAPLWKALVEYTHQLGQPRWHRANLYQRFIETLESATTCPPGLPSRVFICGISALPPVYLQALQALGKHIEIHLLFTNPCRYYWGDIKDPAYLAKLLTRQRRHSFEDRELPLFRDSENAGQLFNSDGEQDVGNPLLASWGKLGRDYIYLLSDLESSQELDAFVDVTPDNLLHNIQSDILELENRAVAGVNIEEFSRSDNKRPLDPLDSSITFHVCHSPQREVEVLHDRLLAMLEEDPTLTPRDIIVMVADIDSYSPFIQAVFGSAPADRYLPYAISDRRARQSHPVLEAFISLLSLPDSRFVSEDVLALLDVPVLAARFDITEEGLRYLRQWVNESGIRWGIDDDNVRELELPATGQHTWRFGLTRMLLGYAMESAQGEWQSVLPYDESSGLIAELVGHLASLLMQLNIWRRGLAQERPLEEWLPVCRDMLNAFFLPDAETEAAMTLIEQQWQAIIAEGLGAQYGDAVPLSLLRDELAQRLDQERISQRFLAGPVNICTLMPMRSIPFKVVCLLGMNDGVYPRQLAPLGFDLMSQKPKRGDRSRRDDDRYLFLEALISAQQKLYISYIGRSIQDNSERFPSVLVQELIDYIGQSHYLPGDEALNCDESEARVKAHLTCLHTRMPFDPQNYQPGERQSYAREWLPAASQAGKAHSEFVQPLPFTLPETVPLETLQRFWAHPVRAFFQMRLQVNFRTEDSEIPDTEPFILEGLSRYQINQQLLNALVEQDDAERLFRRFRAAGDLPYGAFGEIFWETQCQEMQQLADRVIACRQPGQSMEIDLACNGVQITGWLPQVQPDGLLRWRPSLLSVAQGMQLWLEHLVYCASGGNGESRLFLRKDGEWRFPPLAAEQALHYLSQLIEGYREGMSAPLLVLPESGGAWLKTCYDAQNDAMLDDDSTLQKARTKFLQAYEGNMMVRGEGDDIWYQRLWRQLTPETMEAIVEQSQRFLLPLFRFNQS
T1 sequence (P08394 whole entry): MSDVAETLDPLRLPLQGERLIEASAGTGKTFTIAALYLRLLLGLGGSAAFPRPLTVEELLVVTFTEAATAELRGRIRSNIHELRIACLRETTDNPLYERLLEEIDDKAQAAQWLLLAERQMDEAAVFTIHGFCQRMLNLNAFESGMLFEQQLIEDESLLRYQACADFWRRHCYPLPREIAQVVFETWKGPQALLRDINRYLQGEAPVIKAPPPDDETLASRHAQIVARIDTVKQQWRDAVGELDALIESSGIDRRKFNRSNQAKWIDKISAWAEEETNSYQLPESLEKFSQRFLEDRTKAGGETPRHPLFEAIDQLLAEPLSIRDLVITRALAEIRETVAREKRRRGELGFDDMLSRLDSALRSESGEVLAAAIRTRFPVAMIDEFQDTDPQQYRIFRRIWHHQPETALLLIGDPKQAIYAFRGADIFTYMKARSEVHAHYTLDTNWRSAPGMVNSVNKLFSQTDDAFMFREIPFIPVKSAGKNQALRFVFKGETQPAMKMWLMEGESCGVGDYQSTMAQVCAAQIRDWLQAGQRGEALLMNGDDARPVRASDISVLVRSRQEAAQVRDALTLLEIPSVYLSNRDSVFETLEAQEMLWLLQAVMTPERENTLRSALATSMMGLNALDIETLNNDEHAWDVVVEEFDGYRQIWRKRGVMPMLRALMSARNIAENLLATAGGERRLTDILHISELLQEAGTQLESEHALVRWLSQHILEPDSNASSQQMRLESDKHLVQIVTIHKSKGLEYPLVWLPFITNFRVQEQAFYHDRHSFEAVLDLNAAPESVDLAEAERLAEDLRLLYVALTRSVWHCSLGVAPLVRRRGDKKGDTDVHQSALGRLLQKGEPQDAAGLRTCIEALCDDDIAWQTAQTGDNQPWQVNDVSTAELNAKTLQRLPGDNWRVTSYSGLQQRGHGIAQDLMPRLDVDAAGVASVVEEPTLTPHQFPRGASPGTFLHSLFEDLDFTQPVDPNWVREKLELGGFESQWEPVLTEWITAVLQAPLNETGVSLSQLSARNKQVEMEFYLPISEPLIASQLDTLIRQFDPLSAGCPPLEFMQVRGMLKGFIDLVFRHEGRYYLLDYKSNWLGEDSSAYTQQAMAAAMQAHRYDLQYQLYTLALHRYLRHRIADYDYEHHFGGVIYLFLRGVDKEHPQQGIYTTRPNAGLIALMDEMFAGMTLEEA
Nature of the test: RecBCD inhibition via phage-restricted bacterial growth – absorbance, V66 E. coli, mutant T4 phage, counter-screen for AddAB inhibitor project, dose response (AID 492957). The format is functional, cell-based, Escherichia coli str. K-12 substr. MG1655. A general note: The purpose of a counterscreen is to sort out artefacts and off-target activity.

Calls of active or inactive are those of the source. The rule behind the calls is not given here.

For the compound `COc1ccc(C(NC(=O)C(C)C)c2ccc3cccnc3c2O)cc1` (configuration not stated), the IC50 was > 119 µM (inactive).
With `O=C(Cc1ccc([N+](=O)[O-])cc1)N/N=C/c1ccc([N+](=O)[O-])o1`, the IC50 is > 39.5 µM (inactive).

Broadly, the IC50 is the point on the concentration scale where inhibition reaches its midpoint.

Values taken from ChEMBL document CHEMBL1201862, “PubChem BioAssay data set” (2004).
